Laboratory results as given in ChEMBL document CHEMBL3400043, “Design, synthesis and biological evaluation of GY3-based derivatives for anti-type 2 diabetes activity” (Bioorg Med Chem Lett, 2015).
Active and inactive are the calls of the source. The rule behind the calls is not given here.

Legend:
HepG2 [1] = assay: Induction of glucose consumption in human HepG2 cells at 10^-5 M after 24 hrs by glucose oxidase method relative to control; type: functional
[2] = target: T1, Peroxisome proliferator-activated receptor gamma (Homo sapiens) (UniProt P37231); assay: Agonist activity at human PPARgamma expressed in U2OS cells coexpressing human RXR assessed as luciferase activity at 10 uM after 24 hrs by transactivation assay relative to control; type: cell-based
T1 sequence (whole entry): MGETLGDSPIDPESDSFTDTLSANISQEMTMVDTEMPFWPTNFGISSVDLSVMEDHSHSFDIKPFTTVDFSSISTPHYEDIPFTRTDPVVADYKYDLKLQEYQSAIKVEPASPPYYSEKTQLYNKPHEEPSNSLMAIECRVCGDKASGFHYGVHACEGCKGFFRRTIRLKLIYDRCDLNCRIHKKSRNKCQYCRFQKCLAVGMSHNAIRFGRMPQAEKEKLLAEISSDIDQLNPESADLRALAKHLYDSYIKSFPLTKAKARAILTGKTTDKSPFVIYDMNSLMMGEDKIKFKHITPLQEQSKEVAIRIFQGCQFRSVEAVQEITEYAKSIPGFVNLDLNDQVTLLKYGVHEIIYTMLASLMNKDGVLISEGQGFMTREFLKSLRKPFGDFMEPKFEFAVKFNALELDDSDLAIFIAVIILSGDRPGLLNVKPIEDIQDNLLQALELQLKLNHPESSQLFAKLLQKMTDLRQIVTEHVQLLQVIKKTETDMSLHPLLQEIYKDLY

HepG2 [3] = assay: Induction of glucose consumption in human HepG2 cells at 10^-5 M after 24 hrs by glucose oxidase method (reference value: 2 +/- 0.09 mM); type: functional
Mus musculus [4] = assay: Toxicity in eight week old female db/db mouse assessed as effect on body weight at 30 mg/kg, intragastric for 3 weeks; type: organism-based; parameters: dose 30 mg/kg, route intragastric; settings: in vivo, po, 504 h
Mus musculus [5] = assay: Hypoglycemic effect in eight week old female db/db mouse assessed as reduction in fasting triglyceride level at 30 mg/kg, intragastric for 3 weeks; type: functional, organism-based; parameters: dose 30 mg/kg
Mus musculus [6] = assay: Hypoglycemic effect in eight week old female db/db mouse assessed as reduction in blood glucose level at 30 mg/kg, intragastric for 3 weeks; type: functional; settings: po, 504 h
Mus musculus [7] = assay: Toxicity in eight week old female db/db mouse assessed as body weight increase at 30 mg/kg, intragastric for 3 weeks; type: organism-based; parameters: dose 30 mg/kg, route intragastric; settings: in vivo, po, 504 h
Mus musculus [8] = assay: Hypoglycemic effect in eight week old female db/db mouse assessed as reduction in blood glucose level at 30 mg/kg, intragastric for 2 weeks; type: functional; settings: po, 336 h
Mus musculus [9] = assay: Hypoglycemic effect in eight week old female db/db mouse assessed as reduction in blood glucose level at 30 mg/kg, intragastric for 1 week; type: functional; settings: po, 168 h
HepG2 [10] = assay: Induction of glucose consumption in human HepG2 cells at 10^-7 M after 24 hrs by glucose oxidase method relative to control; type: functional
HepG2 [11] = assay: Induction of glucose consumption in human HepG2 cells at 10^-6 M after 24 hrs by glucose oxidase method relative to control; type: functional
HepG2 [12] = assay: Induction of glucose consumption in human HepG2 cells at 10^-3 M after 24 hrs by glucose oxidase method (reference value: 2 +/- 0.09 mM); type: functional
HepG2 [13] = assay: Induction of glucose consumption in human HepG2 cells at 10^-3 M after 24 hrs by glucose oxidase method relative to control; type: functional
Mus musculus [14] = assay: Reduction in total cholesterol level in eight week old female db/db mouse at 30 mg/kg, intragastric for 3 weeks; type: functional, organism-based; parameters: dose 30 mg/kg

| Compound | Activity (HepG2 [1]) [%] | Ratio [2] | Activity (HepG2 [3]) [mM] | other results |
| --- | --- | --- | --- | --- |
| C[C@@H]1[C@@H](CC(=O)O)c2cc(OCc3ccccc3)ccc2N1C(=O)c1ccc(C(F)(F)F)cc1 | 9.8 | 1.72 | 2.2 |  |
| C[C@@H]1[C@@H](CC(=O)O)c2cc(OCc3ccccc3)ccc2N1C(=O)c1ccccc1 | 6.9 | 2.05 | 2.14 |  |
| C[C@@H]1[C@@H](CC(=O)O)c2cc(OCc3ccccc3)ccc2N1C(=O)C12CC3CC(CC(C3)C1)C2 | 4.8 | 1.63 | 2.1 | Activity (Mus musculus [4]): Non-toxic |
| CCc1ccc(CCOc2ccc(CC3SC(=O)NC3=O)cc2)nc1 (stereo not drawn) [PIOGLITAZONE] |  |  |  | inhibition (Mus musculus [5]): Active; inhibition in vivo at 30 mg/kg (Mus musculus [6]): 30.6%; Activity (Mus musculus [7]): 16.3%; inhibition in vivo at 30 mg/kg (Mus musculus [8]): > 30%; inhibition in vivo at 30 mg/kg (Mus musculus [9]): > 25% |
| C[C@@H]1[C@@H](CC(=O)O)c2cc(OCc3ccncc3)ccc2N1C(=O)c1ccc(Cl)cc1 | -15.4 | 1.49 | 1.7 |  |
| C[C@@H]1[C@@H](CC(=O)O)c2cc(OCc3ccccc3)ccc2N1C(=O)Cc1ccc(Cl)cc1 | 17 | 2.2 | 2.35 |  |
| C[C@@H]1[C@@H](CC(=O)O)c2cc(OCCCCc3ccccc3)ccc2N1C(=O)c1ccc(Cl)cc1 | -1.2 | 1.81 | 1.98 |  |
| Cc1c(CCC(=O)O)c2cc(OCc3ccccc3)ccc2n1S(=O)(=O)c1ccc(Cl)cc1 | 22.1 | 2.48 | 2.45 | Activity (HepG2 [10]): 17.7%; Activity (HepG2 [11]): 10.5% |
| CN(CCOc1ccc(CC2SC(=O)NC2=O)cc1)c1ccccn1 (stereo not drawn) [ROSIGLITAZONE] | 26.5 |  | 2.53 |  |
| CC(Oc1ccc2c(c1)[C@H](CC(=O)O)[C@@H](C)N2C(=O)c1ccc(Cl)cc1)c1ccccc1 (stereo partly drawn) | 9.8 | 1.66 | 2.2 |  |
| Cc1c(CCC(=O)O)c2cc(OCc3ccccc3)ccc2n1C(=O)c1ccc(Cl)cc1 | 26.1 | 2.72 | 2.53 | Activity (HepG2 [10]): 19.2%; Activity (HepG2 [11]): 14.1%; Activity (Mus musculus [4]): Non-toxic |
| C[C@@H]1[C@@H](CC(=O)O)c2cc(OCc3ccccc3)ccc2N1C(=O)c1ccncc1 | 22.6 | 1.73 | 2.46 | inhibition (Mus musculus [5]): Active; Activity (HepG2 [10]): -4.1%; inhibition in vivo at 30 mg/kg (Mus musculus [6]): 14.9%; inhibition in vivo at 30 mg/kg (Mus musculus [8]): > 30%; Activity (HepG2 [11]): -4.6% |
| C[C@@H]1[C@@H](CC(=O)O)c2cc(OCc3cccnc3)ccc2N1C(=O)c1ccc(Cl)cc1 | -6.7 | 1.62 | 1.87 |  |
| COc1ccc(CC(=O)N2c3ccc(OCc4ccccc4)cc3[C@H](CC(=O)O)[C@H]2C)cc1OC | 9.9 | 2 | 2.2 |  |
| C[C@@H]1[C@@H](CC(=O)O)c2cc(OCc3ccccc3)ccc2N1C(=O)c1ccc(Cl)cc1 | 20 | 3.51 | 2.4 |  |
| Cc1c(CC(=O)O)c2cc(OCc3ccccc3)ccc2n1C(=O)c1ccc(Cl)cc1 | 21.9 | 3.82 | 2.44 | inhibition in vivo at 30 mg/kg (Mus musculus [6]): 13.5%; inhibition in vivo at 30 mg/kg (Mus musculus [8]): > 30%; inhibition in vivo at 30 mg/kg (Mus musculus [9]): > 25% |
| COc1ccc(C(=O)N2c3ccc(OCc4ccccc4)cc3[C@H](CC(=O)O)[C@H]2C)cc1 | 10.8 | 2.14 | 2.22 |  |
| C[C@@H]1[C@@H](CC(=O)O)c2cc(OCc3ccccc3)ccc2N1S(=O)(=O)c1ccc(Cl)cc1 | 16.3 | 2.37 | 2.33 |  |
| CN(C)C(=N)NC(=N)N [METFORMIN] |  |  |  | Activity (HepG2 [12]): 3.03 mM; Activity (HepG2 [13]): 51% |
| Cc1c(CCCC(=O)O)c2cc(OCc3ccccc3)ccc2n1S(=O)(=O)c1ccc(Cl)cc1 | 38.9 | 2.44 | 2.78 | Activity (HepG2 [10]): 18.2%; inhibition (Mus musculus [14]): Active; inhibition in vivo at 30 mg/kg (Mus musculus [6]): 13.9%; inhibition in vivo at 30 mg/kg (Mus musculus [9]): > 25%; Activity (HepG2 [11]): 15.3%; Activity (Mus musculus [4]): Non-toxic |
| C[C@@H]1[C@@H](CC(=O)O)c2cc(OCc3ccccc3)ccc2N1C(=O)c1ccc(C#N)cc1 | 12.6 | 2.05 | 2.26 |  |
| C[C@@H]1[C@@H](CC(=O)O)c2cc(OCc3ccccc3)ccc2N1C(=O)c1ccc(F)cc1 | 11.6 | 1.74 | 2.24 |  |
| C[C@@H]1[C@@H](CC(=O)O)c2cc(OCCc3ccccc3)ccc2N1C(=O)c1ccc(Cl)cc1 | 2.1 | 2 | 2.05 |  |
| C[C@H]1[C@@H](CC(=O)O)c2cc(OCc3ccccc3)ccc2N1C(=O)c1ccc(Cl)cc1 | 0.6 | 1.72 | 2.01 |  |
| Cc1c(CCCC(=O)O)c2cc(OCc3ccccc3)ccc2n1C(=O)c1ccc(Cl)cc1 | 27.3 | 3.28 | 2.55 | Activity (HepG2 [10]): 12.5%; Activity (HepG2 [11]): 8.3%; Activity (Mus musculus [4]): Non-toxic |
